Experimental data from PubChem BioAssay AID977628 (Broad Institute, 2014).
Inconclusive results are not listed.

Test system: E. coli mixed WT/h24 culture total growth, OD600, 24 h
Experiment: growth of wild-type and h24-humanized E. coli strains – h24 mutant RFP vs wild-type GFP, cherry-pick, dose response (AID 977628);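 note: wild-type GFP and h24 humanized RFP strains co-cultured 1 to 1 per well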

| SMILES | AC50 |
| --- | --- |
| CN(Cc1nnc(-c2ccc(F)cc2)o1)c1ccccc1 | > 100 µM |
| Cc1ccccc1SCC(=O)OCC(=O)Nc1sccc1C(N)=O | > 100 µM |
| OCCN(Cc1ccccc1)Cc1ccc(F)c(F)c1 | > 100 µM |
| Cc1cc(C)c(OCC(=O)OCC(=O)N2CCc3ccccc3C2)c(C)c1 | > 100 µM |
| CCN(C(=O)COC(=O)CCc1ccccc1)c1ccccc1 | > 100 µM |
| CC(C)Oc1nc(-c2ccccc2Cl)nc2ccccc12 | > 100 µM |
| COc1cccc(-c2ccc(NC(=O)C3CCCN(Cc4cnn(C(C)C)c4)C3)cc2)c1 (stereo not given) | > 100 µM |
| CN(C)CCNc1ncnc2c1sc1nc(N3CCCC3)c3c(c12)CC(C)(C)OC3 | > 100 µM |
| O=C(Cc1ccc(Br)cc1)Nc1cccc(-c2cn3c(n2)SCC3)c1 | > 100 µM |
| COc1ccc2c(c1)-c1nc(N)sc1CC2 | > 100 µM |
| O=C(CSCc1c(Cl)cccc1Cl)NCc1ccccn1 | > 100 µM |
| c1ccc(Nc2ccc3ccccc3c2)cc1 | > 100 µM |
| O=S1(=O)N[C@H](Cc2ccccc2)COc2cc(N3CCSCC3)ccc21 | > 100 µM |
| CCN(CC)c1nc(Oc2ccc(C(=O)OC)cc2)nc(N2CCOCC2)n1 | > 100 µM |
| COc1cc2ccccc2cc1C(=O)NCC(c1cccs1)N(C)C (stereo not given) | > 100 µM |
| COc1ccc(CNC(=O)c2nc(S(=O)(=O)Cc3ccccc3)ncc2Cl)cc1 | > 100 µM |
| CCN(CC)CC(=O)Nc1sc2c(c1C(=O)c1ccccc1OC)CCC2 | > 100 µM |
| COc1cccc(OC)c1CNC(=O)CCSCc1ccccc1F | > 100 µM |
| O=C(Nc1ccc(F)c(Cl)c1)C1CC2CCC1C2 (stereo not given) | > 100 µM |
| CC(=O)c1ccc(Sc2ccccc2N)c([N+](=O)[O-])c1 | > 100 µM |
| CNC(=O)c1ccsc1NC(=O)c1ccc(S(=O)(=O)N2CCc3ccccc32)cc1 | > 100 µM |
| Cc1ccc(S(=O)(=O)NCc2c(-c3ccccc3)noc2C)cc1 | > 100 µM |
| COc1ccccc1C1CCN(C(=O)c2cccs2)CC1 | > 100 µM |
| Cc1nn2c(NCc3ccccn3)cc(C(C)C)nc2c1-c1ccccc1 | > 100 µM |
| COc1ccc(CSc2nc3ccccc3c(=O)n2CCCN2CCOCC2)cc1F | > 100 µM |
| CC(C)n1nnnc1C1c2ccccc2C(=O)N1CCOc1ccccc1 (stereo not given) | > 100 µM |
| Cc1cccc(C)c1NC(=O)CNC(=O)C(C)N1CCN(c2cccc(Cl)c2)CC1 (stereo not given) | > 100 µM |
| Cc1cccc(N2CCN(Cc3nc(-c4ccc(F)cc4F)oc3C)CC2)n1 | > 100 µM |

| SMILES | AC50 |
| --- | --- |
| COc1cccc(C(=O)c2c[nH]c(C(=O)NCc3cccnc3)c2)c1 | > 100 µM |
| CCCNc1ccc(C(=O)OCC)cc1[N+](=O)[O-] | > 100 µM |
| Cc1ccc(S(=O)(=O)N2CCCCC2C(=O)N2CCN(c3ccccc3F)CC2)cc1 (stereo not given) | > 100 µM |
| CN(CC(=O)Nc1ccc(F)cc1)C(=O)COc1ccc([N+](=O)[O-])cc1Cl | > 100 µM |
| O=S(=O)(NOCc1ccc(Cl)cc1)c1ccc(Cl)cc1 | > 100 µM |
| Cc1ccc(OCCCC(=O)NC(C)c2ccccc2)c(C)c1 (stereo not given) | > 100 µM |
| Cc1cccc(SCC(=O)Nc2ccccc2[N+](=O)[O-])c1 | > 100 µM |
| COc1ccc(C(CC(=O)c2ccc(O)cc2)S(=O)(=O)c2ccc(C)cc2)cc1 (stereo not given) | > 100 µM |
| CC1CCC2(CC1)SCC(=O)N2c1ccc(F)cc1 (stereo not given) | > 100 µM |
| Cc1cc(C)c(OCCN(C)Cc2ccccc2)c(Br)c1 | > 100 µM |
| O=C1OC[C@@H]2CCCN2C(=O)[C@@H](CC(=O)N(CCO)Cc2ccccc2)C/C=C\C[C@H]1Cc1ccc(F)cc1 | > 100 µM |
| COC(=O)c1cc(S(=O)(=O)NCc2ccc3c(c2)OCO3)cn1C | > 100 µM |
| Cc1n[nH]c(C)c1S(=O)(=O)N1CCCC(C(=O)Nc2ccc(Br)cc2)C1 (stereo not given) | > 100 µM |
| Cc1ccc(C2NC(c3ccc(C)cc3)C(C)C(=O)C2C)cc1 (stereo not given) | > 100 µM |
| O=C(c1sc2ccccc2c1Cl)N1CCC2(CC1)OCCO2 | > 100 µM |
| Cc1ccc(NC(=O)c2ccc([N+](=O)[O-])s2)cc1S(=O)(=O)N1CCOCC1 | > 100 µM |
| Cn1cc(CN(CCO)Cc2cccs2)c(-c2cccc(Cl)c2)n1 | > 100 µM |
| COc1ccc(-c2csc(NC(=O)c3ccoc3C)n2)cc1 | > 100 µM |
| CCOC(=O)c1cc(-c2ccc(OC)cc2)n[nH]1 | > 100 µM |
| COc1cc(CCN(C(=O)c2cc3ccccc3[nH]2)C(c2ccccn2)c2nc3ccccc3[nH]2)cc(OC)c1 (stereo not given) | > 100 µM |
| COc1ccc(NC(=O)c2cccs2)cc1C(=O)N1CCN(c2ccccc2)CC1 | > 100 µM |
| CC1CCCC(NC(=O)COC(=O)Cc2c[nH]c3ccccc23)C1C (stereo not given) | > 100 µM |
| Cc1ccsc1C(=O)C1CCCN(Cc2cc(F)ccc2-n2cccn2)C1 (stereo not given) | > 100 µM |
| CC(C)(C)CC(=O)Nc1ccccc1N1CCN(c2ccccc2)CC1 | > 100 µM |
| O=C(Nc1ccc(Cl)cn1)c1ccc([N+](=O)[O-])o1 | > 100 µM |
| Cc1ccc(NC(=O)c2ccccc2F)c(NC(=O)c2ccccc2F)c1 | > 100 µM |
| COc1ccc(CC(=O)Oc2ccc(C)cc2C)cc1 | > 100 µM |
